Assays:
[1] = test system: HeLa cells infected with scAAV2-EGFP; assay: Transduction efficiency of scAAV2-EGFP in HeLa cells (EGFP expression, fluorescent microscopy); details: for concentration giving maximal increase in transgene expression / maximal increase in transgene expression compared to when no essential metal element was added: HeLa, scAAV2-EGFP, 200 vgs per cell, 48 hours after infection; for maximal increase in transgene expression compared to when no essential metal element was added: at the concentration of maximal increase; for target blood concentration determined from the concentration of greatest improvement of AAV transduction efficiency in vitro: based on FIGS. 1H, 1F, 1C, 1I; for improvement of AAV transduction efficiency: cells infected with rAAV, metal alone or in combination (FIG. 2B)
Protocol: In an initial set of experiments, HeLa cells were infected with self-complementary AAV2 (scAAV2) comprising nucleic acid encoding EGFP (scAAV2-EGFP) at a multiplicity of infection of 200 viral genomes (vgs) per cell. Thereafter, various essential metal elements were added to the cell cultures at different concentrations. Transduction efficiency was measured 48 hours after infection, by evaluating the expression of EGFP using fluorescent microscopy. Images were analyzed using ImageJ software.

[2] = test system: Huh7 cells infected with scAAV3-EGFP; assay: Percentage of Huh7 cells transduced by scAAV3-EGFP (flow cytometry); format: cell-based, human; details: different concentrations, flow cytometry (FIG. 4)
Protocol: Huh7 cells were infected with self-complementary AAV3 (scAAV3) comprising nucleic acid encoding EGFP (scAAV3-EGFP). Thereafter, zinc chloride was added to the cell cultures at different concentrations. Transduction efficiency was measured by evaluating the expression of EGFP using flow cytometry.

[3] = test system: Huh7 cells; assay: Zn2+-induced cytotoxicity in Huh7 cells (mock-transfected); format: cell-based, human
[4] = test system: ZIP14 over-expressing Huh7 cells; assay: Zn2+ effects in Huh7 cells over-expressing ZIP14, transduced with scAAV2-mCherry; format: cell-based, human
Excerpt: The effect of metal ion (e.g., zinc) on the transduction efficiency of AAV vectors may be due to free floating zinc, because the increase in transduction occurs when the cell has taken up zinc to the point where extracellular accumulation occurs. […] ZIP14 is a metal ion transporter that primarily transports zinc into cells.
(§1) Therefore, targeting ZIP14-deficient HCC tumors would be ideal for Zn2+ infusions due to their tendency to prevent zinc uptake, and therefore, increase the level of environmental Zn2+. To test this hypothesis, Huh7 cells were either mock-transfected, or transfected with a recombinant plasmid containing a CMV promoter-driven ZIP14-EGFP fusion protein, and were transduced with scAAV2-mCherry vectors under identical conditions.

[5] = test system: HeLa cells; assay: Zn2+-induced cytotoxicity in HeLa cells; format: cell-based
[6] = test system: HepG2 cells; assay: Factor IX expression in HepG2 cells infected with AAV3-Factor IX (Western blot); format: cell-based; details: rAAV3-Factor IX, 20 μg/ml, 3h post infection
Protocol: HepG2 cells, which express factor IX to a lower degree compared to other cell types, were cultured. They were then either infected with rAAV3 particles carrying nucleic acid encoding Factor IX, or infected with rAAV3 particles carrying nucleic acid encoding Factor IX and treated with 20 μg/ml of ZnCl2. When level of Factor IX expressed in the cells was measured using Western blot analysis after the cells there harvest 3h post infection.

[7] = test system: CCK8 cells; assay: AAV2-mCherry transduction efficiency versus cell viability with varying zinc; format: cell-based; details: varying concentrations of zinc (FIG. 5)
Excerpt: FIG. 5 provides an overlap of AAV transduction efficiency data and cell viability data from experiments in which CCK8 cells were transduced with AAV2 comprising mCherry encoding nucleic acid and treated with varying concentrations of zinc. […] FIGS. 6, 7, and 8 show similar data for HEK293 cells, HeLa cells, and HepG2 cells.

[8] = test system: Huh7 cells; assay: Transgene expression of rAAV2-mCherry in Huh7 cells with zinc; format: cell-based, human; details: 15 μg/ml of Zn2+
Excerpt: as §1

Row | Structure (SMILES) | concentration giving maximal increase in transgene expression [1] | maximal increase in transgene expression compared to when no essential metal element was added [1] [fold] | target blood concentration determined from the concentration of greatest improvement of AAV transduction efficiency in vitro [1] [µg/mL] | improvement of AAV transduction efficiency [1] [fold] | percentage of cells transduced by the scAAV3-EGFP vector [2] | concentrations found to be cytotoxic ([3]; Huh7 cells) | Zn2+-induced cytotoxicity ([3]; mock-treated Huh7 cells, final concentration of 20 μg/ml) | zinc-induced improvement of rAAV transduction efficiency ([4]; Huh7 cells transfected with a ZIP14 gene) | Zn2+-induced cytotoxicity ([4]; ZIP14 over-expressing Huh7 cells, final concentration of 20 μg/ml) | concentration inducing significant cytotoxicity [5] | increase in transgene expression ([1]; HeLa cells, final concentration of 30 μg/ml) [fold] | level of Factor IX expression compared to cells not treated with metal elements [6] | rAAV transduction efficiency versus cell viability [7] | increase in the transgene expression [8] [fold]
1 | [Cl][Co][Cl] [cobalt chloride] | 25 µg/mL | ~2 | 20 to 30 | ~2 |  |  |  |  |  |  |  |  |  | 
2 | [Cl-].[Cl-].[Mg+2] [magnesium chloride] | approximately 100 μg/ml | ~2 | 100 |  |  |  |  |  |  |  |  |  |  | 
3 | [Cl][Ni][Cl] [nickel chloride] | 20 µg/mL | ~3 | 200 | ~2 |  |  |  |  |  |  |  |  |  | 
4 | [Cl-].[Cl-].[Zn+2] [zinc chloride] | 30 µg/mL | ~8 | 30 | ~8 | increases with increasing concentration of zinc chloride | exceeding 20 μg/ml | not mock-treated Huh7 cells, evaded Zn2+-induced cytotoxicity | reduction in the zinc-induced improvement of rAAV transduction efficiency | evaded Zn2+-induced cytotoxicity | exceeding 30 μg/ml | ~8 | greater level of Factor IX expression | drop in rAAV transduction efficiency correlates with cell viability | ~7

Source: patent US20210205382A1, “METHODS AND COMPOSITIONS FOR USING METAL ELEMENTS IN AAV GENE THERAPY” (priority 2018, published 2021)
